In patent US20160311791A1, “NOVEL TRICYCLIC CALCIUM SENSING RECEPTOR ANTOGONISTS FOR THE TREATMENT OF OSTEOPOSOSIS” (MERCK SHARP & DOHME CORP., priority 2013, published 2016):

Target: T1, human CaSR (Homo sapiens, UniProt P41180)
T1 sequence (P41180 20-1078): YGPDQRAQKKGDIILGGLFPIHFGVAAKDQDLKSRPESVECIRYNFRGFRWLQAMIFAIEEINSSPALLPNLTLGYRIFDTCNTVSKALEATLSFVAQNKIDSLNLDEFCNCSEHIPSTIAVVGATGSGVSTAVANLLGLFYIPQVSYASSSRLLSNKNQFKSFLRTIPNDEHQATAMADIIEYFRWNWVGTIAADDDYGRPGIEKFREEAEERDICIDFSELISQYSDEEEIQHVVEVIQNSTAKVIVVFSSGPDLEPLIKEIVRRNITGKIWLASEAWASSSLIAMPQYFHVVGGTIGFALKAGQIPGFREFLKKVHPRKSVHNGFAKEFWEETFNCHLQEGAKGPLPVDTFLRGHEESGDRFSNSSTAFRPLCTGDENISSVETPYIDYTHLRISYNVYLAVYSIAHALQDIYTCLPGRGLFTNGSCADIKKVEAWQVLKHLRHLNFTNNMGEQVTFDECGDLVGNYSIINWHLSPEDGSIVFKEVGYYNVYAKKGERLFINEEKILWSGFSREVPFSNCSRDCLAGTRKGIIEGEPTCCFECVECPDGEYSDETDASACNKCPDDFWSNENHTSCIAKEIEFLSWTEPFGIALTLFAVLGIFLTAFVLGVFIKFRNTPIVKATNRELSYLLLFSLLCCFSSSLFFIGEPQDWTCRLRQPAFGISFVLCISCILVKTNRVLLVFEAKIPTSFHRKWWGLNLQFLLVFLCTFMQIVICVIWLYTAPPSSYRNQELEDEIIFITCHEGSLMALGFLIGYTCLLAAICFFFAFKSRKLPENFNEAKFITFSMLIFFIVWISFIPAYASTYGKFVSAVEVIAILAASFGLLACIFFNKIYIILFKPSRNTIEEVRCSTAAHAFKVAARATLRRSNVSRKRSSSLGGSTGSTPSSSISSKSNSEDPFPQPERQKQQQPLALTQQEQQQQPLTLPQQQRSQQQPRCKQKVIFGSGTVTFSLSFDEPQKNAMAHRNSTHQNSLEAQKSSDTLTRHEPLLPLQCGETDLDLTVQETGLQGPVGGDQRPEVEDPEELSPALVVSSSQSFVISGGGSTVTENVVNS
Assay: CaSR FLIPR assay (calcilytic activity)
Assay type: cell-based
Parameters: expressed in transfected cells
Conditions: HEK293 cells stably expressing human recombinant CaSR; 1 mM CaCl2 agonist; Tables 1-24; read-out: FLIPR ASSAY IC50
Protocol: Procedures for CaSR FLIPR Assay
Calcilytic activity of the compound is measured in HEK293 cells stably expressing human recombinant CaSR (HEK-CaSR) using a FLIPR^TETRA device (Molecular Devices, Sunnyvale, Calif.) according to the manufacturer's directions. […] On the day of the assay, one vial of FLIPR Calcium 4 Assay Kit reagent Component A was equilibrated to room temperature. The content of the Component A vial was diluted by adding 10 ml dilution buffer (2×loading dye). The sample was mixed by vortexing (1-2 minutes) until the contents of the vial dissolved. The Component A vial mixture was diluted with 10 ml dilution buffer. Media was aspirated from the cells and 80 μl of loading buffer was added to each well. Plates were incubated for 1 hour at 37° C. and then placed at room temperature for 10 minutes. A two-stage method of generating 10-point serial dilutions was used. Compound was serially diluted in 100% DMSO (10 point, 3-fold dilution of each compound from 2 mM in 100% DMSO). 3 μl of serially diluted compound was transferred into a second assay microplate that contained 97 μl of TETRA dilution buffer (20 mM HEPES pH7.4, 1×HBSS without Ca and Mg, 0.4 mM CaCl2, 0.4 mM MgSO4, 0.5 mM MgCl2) to create the intermediate dilution plate. After reading the base line, the compounds in 0.5% DMSO in dilution buffer were added to their respective wells as 20 μl aliquots at 6×the final drug concentration. The fluorescence signals were then read. Subsequently, 20 μl of 3.6 mM of CaCl2 agonist (1 mM final concentration) was added to each well. For background, 20 μl of TETRA dilution buffer was added instead. The protocol consisted of a pre-addition read of 10 frames (10×1 frame/sec), a post 1st addition read of 100 frames (60×1 frame/sec, 40×1 frame/3 sec), pause 3 min, a post 2nd addition read of 100 frames (60×1 frame/sec, 40×1 frame/3 sec) on a FLIPR^TETRA Plate Reader.

SMILES | IC50 [nM]
Cc1ccc(CC(C)(C)NC[C@@H](O)CO[C@H](C)c2ccc(C)c3c2[C@H]2[C@@H](O3)[C@@H]2C(=O)O)cc1F [Example 9-4] | 68
COc1ccc(CC(C)(C)NC[C@@H](O)CO[C@H](C)c2ccc(C)c3c2[C@H]2[C@@H](O3)[C@@H]2C(=O)O)cc1F [Example 9-5] | 224
Cc1ccc([C@@H](C)OC[C@H](O)CNC(C)(C)Cc2ccc3c(c2)CCC3)c2c1O[C@H]1[C@H](C(=O)O)[C@@H]21 [Example 9-6] | 53
Cc1ccc([C@@H](C)OC[C@H](O)CNC2(Cc3ccc4ccccc4c3)CC2)c2c1O[C@H]1[C@H](C(=O)O)[C@@H]21 [Example 9-7] | 187
Cc1ccc([C@@H](C)OC[C@H](O)CNC2(Cc3ccc4ccccc4c3)CCC2)c2c1O[C@H]1[C@H](C(=O)O)[C@@H]21 [Example 9-8] | > 10000
Cc1ccc([C@@H](C)OC[C@H](O)CNC(C)(C)Cc2ccc(Cl)cc2Cl)c2c1O[C@H]1[C@H](C(=O)O)[C@@H]21 [Example 9-9] | 77
Cc1ccc([C@@H](C)OC[C@H](O)CNC(C)(C)Cc2ccc(Cl)c(Cl)c2)c2c1O[C@H]1[C@H](C(=O)O)[C@@H]21 [Example 9-10] | 42
CCOC(=O)[C@@H]1[C@H]2Oc3c(C)ccc([C@@H](C)OC[C@H](O)CNC(C)(C)Cc4ccc(SC)c(F)c4)c3[C@H]21 [Example 12-1] | 130
C[C@@H](OC[C@H](O)CNC(C)(C)Cc1ccc2ccccc2c1)c1cccc2c1[C@@H]1[C@H](C2)[C@H]1C(=O)O [Example 13-1] | 28
C[C@@H](OC[C@H](O)CNC(C)(C)Cc1ccc2occc2c1)c1cccc2c1[C@@H]1[C@H](C2)[C@H]1C(=O)O [Example 13-2] | 47
C[C@@H](OC[C@H](O)CNC(C)(C)Cc1ccc2c(c1)CCC2)c1cccc2c1[C@@H]1[C@H](C2)[C@H]1C(=O)O [Example 13-3] | 88
C[C@@H](OC[C@H](O)CNC(C)(C)Cc1ccc2sccc2c1)c1cccc2c1[C@@H]1[C@H](C2)[C@H]1C(=O)O [Example 13-4] | 36
CSc1ccc(CC(C)(C)NC[C@@H](O)CO[C@H](C)c2cccc3c2[C@@H]2[C@H](C3)[C@H]2C(=O)O)cc1F [Example 13-5] | 130
C[C@@H](OC[C@H](O)CNC(C)(C)Cc1ccc2ccccc2c1)c1cccc2c1[C@H]1[C@@H](C2)[C@@H]1C(=O)O [Example 13-6] | 4900
C[C@@H](OC[C@H](O)CNC(C)(C)Cc1ccc2ccccc2c1)c1cccc2c1C[C@@H]1[C@@H](C(=O)O)[C@H]21 [Example 14-1] | 270
C[C@@H](OC[C@H](O)CNC(C)(C)Cc1ccc2ccccc2c1)c1cccc2c1C[C@H]1[C@H](C(=O)O)[C@@H]21 [Example 14-2] | 150
C[C@@H](OC[C@H](O)CNC(C)(C)Cc1ccc2ccccc2c1)c1c(Cl)ccc2c1[C@@H]1[C@H](O2)[C@H]1C(=O)O [Example 15-1] | 17
Cc1cc(Cl)c([C@@H](C)OC[C@H](O)CNC(C)(C)Cc2ccc3ccccc3c2)c2c1O[C@@H]1[C@@H](C(=O)O)[C@H]21 [Example 16-1] | 9
Cc1cc(Cl)c([C@@H](C)OC[C@H](O)CNC(C)(C)Cc2ccc3occc3c2)c2c1O[C@@H]1[C@@H](C(=O)O)[C@H]21 [Example 16-2] | 17
Cc1cc(Cl)c([C@@H](C)OC[C@H](O)CNC(C)(C)Cc2ccc3sccc3c2)c2c1O[C@@H]1[C@@H](C(=O)O)[C@H]21 [Example 16-3] | 14
Cc1cc(Cl)c([C@@H](C)OC[C@H](O)CNC(C)(C)Cc2ccc3c(c2)OCCO3)c2c1O[C@@H]1[C@@H](C(=O)O)[C@H]21 [Example 16-4] | 41
COc1ccc(CC(C)(C)NC[C@@H](O)CO[C@H](C)c2c(Cl)cc(C)c3c2[C@@H]2[C@H](O3)[C@H]2C(=O)O)c(F)c1 [Example 16-5] | 24
CSc1ccc(CC(C)(C)NC[C@@H](O)CO[C@H](C)c2c(Cl)cc(C)c3c2[C@@H]2[C@H](O3)[C@H]2C(=O)O)cc1F [Example 16-6] | 17

The remaining lines, values ahead:

IC50 [nM] | SMILES
26 | C[C@@H](OC[C@H](O)CNC(C)(C)Cc1ccc2ccccc2c1)c1ccc(F)c2c1C1C(O2)C1C(=O)O (stereo partly shown) [Example 17-1]
40 | C[C@@H](OC[C@H](O)CNC(C)(C)Cc1ccc2ccccc2c1)c1ccc(Cl)c2c1C1C(O2)C1C(=O)O (stereo partly shown) [Example 18-1]
176 | C[C@@H](OC[C@H](O)CNC(C)(C)Cc1ccc2ccccc2c1)c1cc(F)cc2c1O[C@@H]1[C@@H](C(=O)O)[C@H]21 [Example 19-1]
20 | C[C@@H](OC[C@H](O)CNC(C)(C)Cc1ccc2ccccc2c1)c1cc(Cl)cc2c1O[C@@H]1[C@@H](C(=O)O)[C@H]21 [Example 20-1]
2720 | CC(OC[C@H](O)CNC(C)(C)Cc1ccc2ccccc2c1)c1ccc2c(c1)C1C(O2)C1C(=O)O (stereo partly shown) [Example 21-1]
3550 | CC(C)(Cc1ccc2ccccc2c1)NC[C@@H](O)COc1ccc2c(c1)C1C(O2)C1C(=O)O (stereo partly shown) [Example 22-1]
42 | CC(OC[C@H](O)CNC(C)(C)Cc1ccc2ccccc2c1)c1cccc2c1C1C(S2)C1C(=O)O (stereo partly shown) [Example 23-1]
106 | Cc1ccc(C(C)OC[C@H](O)CNC(C)(C)Cc2ccc3ccccc3c2)c2c1OC(C)(C)C1C(C(=O)O)C21 (stereo partly shown) [Example 24-1]
